ChEMBL document CHEMBL3632549, “Targeting EGFR/HER2 tyrosine kinases with a new potent series of 6-substituted 4-anilinoquinazoline hybrids: Design, synthesis, kinase assay, cell-based assay, and molecular docking” (Bioorg Med Chem Lett, 2015)

Assays:
[1] = target: Epidermal growth factor receptor (Homo sapiens, UniProt P00533); experiment: Inhibition of EGFR (unknown origin) after 120 mins by HotSpot assay
[2] = target: Receptor tyrosine-protein kinase erbB-2 (Homo sapiens, UniProt P04626); experiment: Inhibition of HER2 (unknown origin) after 120 mins by HotSpot assay
[3] = Cytotoxicity against human L-132 cells after 48 hrs by MTT assay; format: cell-based; details: L132, 48 h
BT-474 = experiment: Cytotoxicity against human BT474 cells expressing HER2 after 72 hrs by Cell Titer Glo assay; format: functional; details: BT-474, 72 h
[4] = target: Insulin-like growth factor 1 receptor (Homo sapiens, UniProt P08069); experiment: Inhibition of IGF1R (unknown origin) after 120 mins by HotSpot assay
[5] = target: Hepatocyte growth factor receptor (Homo sapiens, UniProt P08581); experiment: Inhibition of c-MET (unknown origin) after 120 mins by HotSpot assay
[6] = target: Fibroblast growth factor receptor 1 (Homo sapiens, UniProt P11362); experiment: Inhibition of FGFR1 (unknown origin) after 120 mins by HotSpot assay
[7] = target: MAP kinase-activated protein kinase 2 (Homo sapiens, UniProt P49137); experiment: Inhibition of MAPKAPK2 (unknown origin) after 120 mins by HotSpot assay
[8] = target: Cyclin-dependent kinase 2 (Homo sapiens, UniProt P24941); experiment: Inhibition of CDK2 (unknown origin) after 120 mins by HotSpot assay
Focal adhesion kinase 1 = Focal adhesion kinase 1 (Homo sapiens, UniProt Q05397); experiment: Inhibition of FAK (unknown origin) after 120 mins by HotSpot assay
[9] = target: Vascular endothelial growth factor receptor 2 (Homo sapiens, UniProt P35968); experiment: Inhibition of VEGFR2 (unknown origin) after 120 mins by HotSpot assay
[10] = target: Tyrosine-protein kinase Lck (Homo sapiens, UniProt P06239); experiment: Inhibition of LCK (unknown origin) after 120 mins by HotSpot assay
[11] = target: Mitogen-activated protein kinase 14 (Homo sapiens, UniProt Q16539); experiment: Inhibition of P38a (unknown origin) after 120 mins by HotSpot assay

Chain of Receptor tyrosine-protein kinase erbB-2 (P04626 whole entry): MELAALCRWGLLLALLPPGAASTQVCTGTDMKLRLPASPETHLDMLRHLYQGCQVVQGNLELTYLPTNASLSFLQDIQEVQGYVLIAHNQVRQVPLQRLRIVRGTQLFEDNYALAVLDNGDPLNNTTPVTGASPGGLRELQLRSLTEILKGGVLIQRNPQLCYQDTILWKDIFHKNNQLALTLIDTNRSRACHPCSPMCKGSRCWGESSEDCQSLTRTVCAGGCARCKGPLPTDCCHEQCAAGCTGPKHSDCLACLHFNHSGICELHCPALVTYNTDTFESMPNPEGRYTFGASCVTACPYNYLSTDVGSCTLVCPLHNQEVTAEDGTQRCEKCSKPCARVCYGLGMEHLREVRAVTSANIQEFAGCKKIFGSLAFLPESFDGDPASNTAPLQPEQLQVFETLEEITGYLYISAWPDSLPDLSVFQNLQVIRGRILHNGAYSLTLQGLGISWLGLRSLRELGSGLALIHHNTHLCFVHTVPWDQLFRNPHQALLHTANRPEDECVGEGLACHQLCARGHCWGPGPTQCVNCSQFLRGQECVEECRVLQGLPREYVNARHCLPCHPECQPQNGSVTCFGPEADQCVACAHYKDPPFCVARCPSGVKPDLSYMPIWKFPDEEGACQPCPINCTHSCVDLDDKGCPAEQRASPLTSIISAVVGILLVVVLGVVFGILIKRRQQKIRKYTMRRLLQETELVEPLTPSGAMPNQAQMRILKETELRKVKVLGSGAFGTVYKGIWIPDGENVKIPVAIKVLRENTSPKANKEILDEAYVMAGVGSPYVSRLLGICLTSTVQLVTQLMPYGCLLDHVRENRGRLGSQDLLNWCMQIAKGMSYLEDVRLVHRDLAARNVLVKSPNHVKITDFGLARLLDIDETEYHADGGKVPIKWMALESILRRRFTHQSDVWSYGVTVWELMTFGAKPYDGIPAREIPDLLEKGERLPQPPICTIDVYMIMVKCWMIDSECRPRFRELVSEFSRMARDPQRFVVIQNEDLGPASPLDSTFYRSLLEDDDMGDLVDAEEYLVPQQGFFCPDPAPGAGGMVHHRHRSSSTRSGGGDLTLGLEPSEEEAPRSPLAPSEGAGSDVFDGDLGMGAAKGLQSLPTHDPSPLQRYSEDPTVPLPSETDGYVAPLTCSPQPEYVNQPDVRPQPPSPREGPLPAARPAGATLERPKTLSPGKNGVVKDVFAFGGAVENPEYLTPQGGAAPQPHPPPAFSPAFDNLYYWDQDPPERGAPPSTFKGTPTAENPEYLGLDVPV
Chain of Epidermal growth factor receptor (P00533 whole entry): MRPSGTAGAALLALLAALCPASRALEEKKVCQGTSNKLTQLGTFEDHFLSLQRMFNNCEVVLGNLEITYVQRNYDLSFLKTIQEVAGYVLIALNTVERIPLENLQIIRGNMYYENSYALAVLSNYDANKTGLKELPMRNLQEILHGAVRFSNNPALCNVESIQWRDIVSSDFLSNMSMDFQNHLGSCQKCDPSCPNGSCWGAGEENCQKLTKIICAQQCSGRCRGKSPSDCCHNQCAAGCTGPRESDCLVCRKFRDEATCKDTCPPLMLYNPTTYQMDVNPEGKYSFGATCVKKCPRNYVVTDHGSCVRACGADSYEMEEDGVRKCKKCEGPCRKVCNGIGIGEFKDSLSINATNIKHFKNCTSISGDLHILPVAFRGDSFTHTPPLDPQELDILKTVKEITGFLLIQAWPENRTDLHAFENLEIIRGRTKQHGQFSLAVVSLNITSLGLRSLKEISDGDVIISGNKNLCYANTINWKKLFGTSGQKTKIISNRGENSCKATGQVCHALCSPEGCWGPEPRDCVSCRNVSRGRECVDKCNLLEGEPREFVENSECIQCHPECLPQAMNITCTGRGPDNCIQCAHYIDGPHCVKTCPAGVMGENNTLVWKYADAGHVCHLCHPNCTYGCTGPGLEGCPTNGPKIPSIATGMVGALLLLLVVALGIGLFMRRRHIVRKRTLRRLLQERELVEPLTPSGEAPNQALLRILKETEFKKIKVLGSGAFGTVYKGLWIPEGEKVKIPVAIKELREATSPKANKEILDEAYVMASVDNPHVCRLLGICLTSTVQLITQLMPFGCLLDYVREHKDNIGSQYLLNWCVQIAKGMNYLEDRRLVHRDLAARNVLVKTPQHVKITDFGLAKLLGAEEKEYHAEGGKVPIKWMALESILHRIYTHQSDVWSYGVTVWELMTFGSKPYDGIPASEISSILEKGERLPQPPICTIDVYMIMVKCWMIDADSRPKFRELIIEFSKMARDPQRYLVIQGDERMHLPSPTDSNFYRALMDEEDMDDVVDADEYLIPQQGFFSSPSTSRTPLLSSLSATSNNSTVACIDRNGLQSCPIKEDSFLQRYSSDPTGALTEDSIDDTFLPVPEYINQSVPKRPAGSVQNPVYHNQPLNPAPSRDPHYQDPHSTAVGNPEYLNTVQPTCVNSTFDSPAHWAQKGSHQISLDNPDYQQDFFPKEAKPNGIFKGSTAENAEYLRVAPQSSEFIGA
Chain of Vascular endothelial growth factor receptor 2 (P35968 whole entry): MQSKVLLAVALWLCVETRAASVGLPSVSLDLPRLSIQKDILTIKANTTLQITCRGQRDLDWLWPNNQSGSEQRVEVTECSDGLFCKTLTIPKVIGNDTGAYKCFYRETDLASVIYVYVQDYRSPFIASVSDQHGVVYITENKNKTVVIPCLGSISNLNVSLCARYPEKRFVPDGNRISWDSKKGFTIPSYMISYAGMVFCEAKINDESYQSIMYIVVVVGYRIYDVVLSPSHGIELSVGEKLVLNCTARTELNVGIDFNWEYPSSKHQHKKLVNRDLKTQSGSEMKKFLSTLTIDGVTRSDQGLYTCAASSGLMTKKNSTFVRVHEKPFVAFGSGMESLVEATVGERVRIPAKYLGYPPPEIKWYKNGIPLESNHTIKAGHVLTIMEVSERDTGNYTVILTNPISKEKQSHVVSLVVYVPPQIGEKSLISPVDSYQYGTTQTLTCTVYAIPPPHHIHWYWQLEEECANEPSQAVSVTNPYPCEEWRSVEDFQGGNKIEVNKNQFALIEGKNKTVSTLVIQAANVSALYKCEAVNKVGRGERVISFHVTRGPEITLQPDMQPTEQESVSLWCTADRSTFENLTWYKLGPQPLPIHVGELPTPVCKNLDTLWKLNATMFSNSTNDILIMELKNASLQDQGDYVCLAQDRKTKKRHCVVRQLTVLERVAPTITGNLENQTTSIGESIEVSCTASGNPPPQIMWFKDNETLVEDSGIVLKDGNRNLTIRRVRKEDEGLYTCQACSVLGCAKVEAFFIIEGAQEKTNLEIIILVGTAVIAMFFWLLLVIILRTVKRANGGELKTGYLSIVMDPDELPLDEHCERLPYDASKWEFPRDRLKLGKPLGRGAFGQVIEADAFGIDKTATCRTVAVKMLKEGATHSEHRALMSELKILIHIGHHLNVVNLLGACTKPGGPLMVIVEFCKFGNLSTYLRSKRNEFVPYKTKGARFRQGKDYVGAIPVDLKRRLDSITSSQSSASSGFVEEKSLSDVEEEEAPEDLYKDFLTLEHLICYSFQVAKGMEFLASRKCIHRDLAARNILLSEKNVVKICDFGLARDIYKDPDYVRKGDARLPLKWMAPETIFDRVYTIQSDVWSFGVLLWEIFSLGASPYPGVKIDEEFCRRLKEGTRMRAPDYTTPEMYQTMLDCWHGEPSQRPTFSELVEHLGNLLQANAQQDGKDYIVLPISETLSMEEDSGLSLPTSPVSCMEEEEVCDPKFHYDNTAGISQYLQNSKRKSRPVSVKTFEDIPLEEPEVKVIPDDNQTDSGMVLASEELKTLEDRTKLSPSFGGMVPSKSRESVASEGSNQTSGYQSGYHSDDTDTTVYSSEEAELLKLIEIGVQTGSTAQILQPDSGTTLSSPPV
Chain of Focal adhesion kinase 1 (Q05397 whole entry): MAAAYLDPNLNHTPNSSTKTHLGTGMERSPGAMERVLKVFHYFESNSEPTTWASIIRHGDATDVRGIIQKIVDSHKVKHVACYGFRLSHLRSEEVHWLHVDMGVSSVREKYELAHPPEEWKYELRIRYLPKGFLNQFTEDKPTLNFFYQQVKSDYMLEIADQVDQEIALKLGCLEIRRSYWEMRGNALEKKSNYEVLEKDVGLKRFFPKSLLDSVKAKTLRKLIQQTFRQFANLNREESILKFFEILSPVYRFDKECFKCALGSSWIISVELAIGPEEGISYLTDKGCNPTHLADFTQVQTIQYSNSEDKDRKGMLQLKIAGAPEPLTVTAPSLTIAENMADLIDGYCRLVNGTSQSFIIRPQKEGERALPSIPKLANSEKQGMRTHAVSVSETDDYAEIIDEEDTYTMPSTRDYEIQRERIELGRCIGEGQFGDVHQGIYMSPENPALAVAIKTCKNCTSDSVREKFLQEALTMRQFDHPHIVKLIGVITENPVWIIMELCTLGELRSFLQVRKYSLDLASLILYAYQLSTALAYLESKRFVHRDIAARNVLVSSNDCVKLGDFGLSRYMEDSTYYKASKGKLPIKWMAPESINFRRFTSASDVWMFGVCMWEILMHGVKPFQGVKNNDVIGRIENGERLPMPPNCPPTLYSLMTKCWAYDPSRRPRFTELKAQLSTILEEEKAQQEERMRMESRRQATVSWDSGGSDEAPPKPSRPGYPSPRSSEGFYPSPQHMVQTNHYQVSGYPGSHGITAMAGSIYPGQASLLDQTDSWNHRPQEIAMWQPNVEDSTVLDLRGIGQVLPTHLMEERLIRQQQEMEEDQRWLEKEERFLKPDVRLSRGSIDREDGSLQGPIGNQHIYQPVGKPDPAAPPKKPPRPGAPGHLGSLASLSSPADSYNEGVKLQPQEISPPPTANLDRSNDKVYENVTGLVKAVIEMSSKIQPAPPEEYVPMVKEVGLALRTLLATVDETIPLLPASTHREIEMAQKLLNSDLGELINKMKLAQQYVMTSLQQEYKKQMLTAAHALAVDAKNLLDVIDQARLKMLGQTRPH

Row | SMILES | IC50 [1] | IC50 [2] | GI50 (BT-474) | also measured
1 | CCOC(=O)C(=CNC(=O)Nc1ccc(C(=O)Nc2ccc3ncnc(Nc4ccc(F)c(Cl)c4)c3c2)cc1)C(=O)OCC | 1460 nM | > 10000 nM |  | 
2 | CCOC(=O)C(=CNc1ccc2ncnc(Nc3ccc(Oc4cccc(C(F)(F)F)c4)c(Cl)c3)c2c1)C(=O)OCC | 23 nM | 1000 nM |  | 
3 | CC(=O)Nc1ccc2ncnc(Nc3ccc(OCc4ccccn4)c(Cl)c3)c2c1 | 3 nM | 16 nM | 2700 nM | IC50 [4]: Not Active; IC50 [5]: Not Active; IC50 [6]: Not Active; IC50 [7]: Not Active; IC50 [8]: Not Active; IC50 [3]: > 100000 nM; IC50 (Focal adhesion kinase 1): Not Active; IC50 [9]: Not Active; IC50 [10]: 1220 nM; IC50 [11]: Not Active
4 | N#CC(C#N)=CNc1ccc2ncnc(Nc3ccc(Oc4ccc(Cl)c(Cl)c4)c(Cl)c3)c2c1 | > 10000 nM | > 10000 nM |  | 
5 | CCNC(=O)Nc1ccc2ncnc(Nc3ccc(Oc4cccc(C(F)(F)F)c4)c(Cl)c3)c2c1 | 29 nM | 625 nM | 3550 nM | 
6 | CCNC(=O)Nc1ccc2ncnc(Nc3ccc(Oc4ccc(Cl)c(Cl)c4)c(Cl)c3)c2c1 | > 10000 nM | > 10000 nM | > 10000 nM | 
7 | CS(=O)(=O)CCNCc1ccc(-c2ccc3ncnc(Nc4ccc(OCc5cccc(F)c5)c(Cl)c4)c3c2)o1 [LAPATINIB] |  |  | 930 nM | 
8 | CCNC(=O)Nc1ccc(C(=O)Nc2ccc3ncnc(Nc4ccc(F)c(Cl)c4)c3c2)cc1 | 31 nM | 855 nM |  | 

The next lines start with results.

Row | IC50 [1] | IC50 [2] | SMILES | GI50 (BT-474) | also measured
9 | 445 nM | 2720 nM | N#CC(C#N)=CNc1ccc2ncnc(Nc3ccc(OCc4cccc(F)c4)c(Cl)c3)c2c1 |  | 
10 | 3050 nM | 8000 nM | N#CC(C#N)=CNc1ccc2ncnc(Nc3ccc(OCc4ccccn4)c(Cl)c3)c2c1 |  | 
11 | 227 nM | 1390 nM | CCNC(=O)Nc1ccc2ncnc(Nc3ccc(OCc4ccccn4)c(Cl)c3)c2c1 | 1950 nM | IC50 [3]: > 100000 nM
12 | 9 nM | 275 nM | NC(=O)Nc1ccc(C(=O)Nc2ccc3ncnc(Nc4ccc(F)c(Cl)c4)c3c2)cc1 |  | 
13 | 4 nM | 77 nM | NC(=O)Nc1ccc2ncnc(Nc3ccc(Oc4cccc(C(F)(F)F)c4)c(Cl)c3)c2c1 | > 10000 nM | 
14 | 543 nM | 706 nM | NC(=O)Nc1ccc2ncnc(Nc3ccc(Oc4ccc(Cl)c(Cl)c4)c(Cl)c3)c2c1 | 2380 nM | 
15 | 812 nM | 5050 nM | CCOC(=O)C(=CNc1ccc2ncnc(Nc3ccc(OCc4cccc(F)c4)c(Cl)c3)c2c1)C(=O)OCC |  | 
16 | 35 nM | 126 nM | CCNC(=O)Nc1ccc2ncnc(Nc3ccc(OCc4cccc(F)c4)c(Cl)c3)c2c1 | 1820 nM | IC50 [3]: > 100000 nM
17 | 99 nM | 287 nM | NC(=O)Nc1ccc2ncnc(Nc3ccc(OCc4cccc(F)c4)c(Cl)c3)c2c1 | 4720 nM | 
18 | > 10000 nM | > 10000 nM | CCOC(=O)C(=CNc1ccc2ncnc(Nc3ccc(Oc4ccc(Cl)c(Cl)c4)c(Cl)c3)c2c1)C(=O)OCC |  | 
19 | 1020 nM | 3290 nM | CCOC(=O)C(=CNc1ccc2ncnc(Nc3ccc(OCc4ccccn4)c(Cl)c3)c2c1)C(=O)OCC |  | 
